Biological target: Histamine H2 receptor (Cavia porcellus, UniProt P47747)
Assay: Histamine H2 receptor antagonism on the right atrium of the guinea pig
Type: functional, tissue-based, Cardiac atrium
Settings: read-out: pA2 (converted)

Sequence of Histamine H2 receptor (P47747 whole entry): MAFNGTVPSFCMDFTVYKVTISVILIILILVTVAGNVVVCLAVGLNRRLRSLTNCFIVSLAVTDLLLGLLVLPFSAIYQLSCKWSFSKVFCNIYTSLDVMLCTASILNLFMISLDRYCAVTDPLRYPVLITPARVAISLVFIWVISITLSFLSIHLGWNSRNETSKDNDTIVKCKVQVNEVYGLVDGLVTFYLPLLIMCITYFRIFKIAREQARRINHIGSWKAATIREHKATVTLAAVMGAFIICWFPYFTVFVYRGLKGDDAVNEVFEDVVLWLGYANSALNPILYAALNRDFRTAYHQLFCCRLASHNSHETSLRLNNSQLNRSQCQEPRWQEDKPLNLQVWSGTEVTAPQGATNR

| Kb [µM] | Structure (SMILES) |
| --- | --- |
| 1.2 | CN/C=N/c1ccc(-c2c[nH]cn2)cc1 |
| 0.0316 | CCC(CC)N/C=N/c1ccc(-c2c[nH]cn2)cc1 |
| 0.00525 | CC(C)CN/C=N/c1ccc(-c2c[nH]cn2)cc1 |
| 0.0282 | CC(C)/N=C/Nc1ccc(-c2c[nH]cn2)cc1 |
| 0.0141 | CCC(C)N/C=N/c1ccc(-c2c[nH]cn2)cc1 (centres undefined) |
| 0.00759 | CCC(C)(C)N/C=N/c1ccc(-c2c[nH]cn2)cc1 |
| 0.0427 | CC/N=C/Nc1ccc(-c2c[nH]cn2)cc1 |
| 0.0112 | CCCCN/C=N/c1ccc(-c2c[nH]cn2)cc1 |
| 0.0112 | CC(C)(C)/N=C/Nc1ccc(-c2c[nH]cn2)cc1 |

From ChEMBL document CHEMBL1125709, “Substituent effect on the stereochemistry of H2-receptor antagonists of the phenylformamidine series. A conformation-dependent mode of interaction with the H2 receptor” (J Med Chem, 1991)
